# From patent US20020137929A1, “1 - (3-heterocyclylphenyl) isothiourea, -isourea, -guanidine and -amidine herbicidal agents” (Intellectual Property Department, BASF Aktiengesellschaft, priority 1998, published 2002)
# Legend:
# MOOVA (Monochoria) = assay: Preemergence weed control under flooded paddy conditions; type: in vivo, Monochoria vaginalis; details: rated 3-4 weeks after treatment
# How it was run: (§1)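 Visual injury scored 0-9 against control three to four weeks post-treatment, greenhouse-grown. Application: acetone/water (50/50) solutions dosed directly into flood water (1.5-3 cm over silt loam, planted top 0.5 cm), roughly 0.0313 to 0.500 kg/ha active ingredient.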
# ZEAMX (Corn, Field) [1] = assay: Postemergence herbicidal evaluation; type: in vivo, Zea mays; details: postemergence
# How it was run: (§2)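 Scores (0–9) reflect plant stand, vigor, malformation, size, chlorosis and general appearance relative to control, read 4 to 5 weeks after treatment and averaged where tests were repeated. Application: about 0.0156–0.500 kg/ha sprayed at 40 psi onto two-week seedlings.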
# ECHCG (Barnyardgrass) = assay: Preemergence herbicidal evaluation; type: in vivo, Echinochloa crus-galli; details: rated 4-5 weeks after treatment
# How it was run: (§3)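 Scores use a 0–9 visual scale covering stand, vigor, malformation, size and chlorosis relative to controls, rated four to five weeks after treatment. Before emergence, soil-planted seeds were sprayed with compound in aqueous acetone at roughly 0.0156–0.500 kg/ha and held in the greenhouse.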
# CYPIR (Rice Flatsedge) = assay: Preemergence weed control under flooded paddy conditions; type: in vivo, Cyperus iria; details: rated 3-4 weeks after treatment
# How it was run: (§4)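 Herbicidal effect is scored visually on a 0-9 scale against an untreated control, three to four weeks after compounds are pipetted into the flood water (1.5 to 3 cm deep) over seeds planted in silt loam at 0.5 cm depth. Rates: about 0.0313 to 0.500 kg/ha.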
# [2] = test system: ECHORC (Watergrass (Calif.)); assay: as above; type: in vivo, Echinochloa oryzoides; details: rated 3-4 weeks after treatment
# How it was run: as §4
# SETVI (Foxtail, Green) = assay: Preemergence herbicidal evaluation; type: in vivo, Setaria viridis; details: rated 4-5 weeks after treatment
# How it was run: as §3
# CASOB (Sicklepod) [3] = assay: Preemergence herbicidal evaluation; type: in vivo, Cassia obtusifolia; details: rated 4-5 weeks after treatment
# How it was run: as §3
# [4] = test system: TRZAWR (Wheat, Winter, cv Riband); assay: Preemergence herbicidal evaluation; type: in vivo, Triticum aestivum; details: rated 4-5 weeks after treatment
# How it was run: as §3
# [5] = test system: GLXMAW (Soybean, Williams); assay: Preemergence herbicidal evaluation; type: in vivo, Glycine max, (L.) Merr. cv Williams; details: rated 4-5 weeks after treatment
# How it was run: as §3
# CASOB (Sicklepod) [6] = assay: Postemergence herbicidal evaluation; type: in vivo, Cassia obtusifolia; details: postemergence
# How it was run: as §2
# GALAP (Galium) = assay: Preemergence herbicidal evaluation; type: in vivo, Galium aparine; details: rated 4-5 weeks after treatment
# How it was run: as §3
# CYPSE (Flatsedge) = assay: Preemergence weed control under flooded paddy conditions; type: in vivo, Cyperus serotinus; details: rated 3-4 weeks after treatment
# How it was run: as §1
# [7] = test system: IPOHE (Morningglory, Ivyleaf); assay: Preemergence herbicidal evaluation; type: in vivo, Ipomoea hederacea; details: rated 4-5 weeks after treatment
# How it was run: as §3
# ZEAMX (Corn, Field) [8] = assay: Preemergence herbicidal evaluation; type: in vivo, Zea mays; details: rated 4-5 weeks after treatment
# How it was run: as §3
# ABUTH (Velvetleaf) = assay: Preemergence herbicidal evaluation; type: in vivo, Abutilon theophrasti; details: rated 4-5 weeks after treatment
# How it was run: as §3
# [9] = test system: IPOHE (Morningglory, Ivyleaf); assay: Postemergence herbicidal evaluation; type: in vivo, Ipomoea hederacea; details: postemergence
# How it was run: as §2
structure (smiles),measurement,setting,value
"CCOC(=O)CN1C(=O)C(Cc2ccccc2OCC(=O)O)S/C1=N/c1cc(-n2c(=O)cc(C(F)(F)F)n(C)c2=O)c(F)cc1Cl (stereo not shown) [Compound 113, 5-[o-(Carboxymethoxy)benzyl]-2-{{2-chloro-5-[3,6-dihydro-3-methyl-2,6-dioxo-4-(trifluoromethyl)-1(2H)-pyrimidinyl]-4-fluorophenyl}imino}-4-oxo-3-thiazolidineacetic acid, 3-ethyl ester]",MOOVA herbicidal effect rating,MOOVA (Monochoria); 0.0313 kg/ha,9.0
same,MOOVA herbicidal effect rating,MOOVA (Monochoria); 0.0625 kg/ha,9.0
same,MOOVA herbicidal effect rating,MOOVA (Monochoria); 0.1250 kg/ha,9.0
same,MOOVA herbicidal effect rating,MOOVA (Monochoria); 0.2500 kg/ha,9.0
same,Herbicidal rating ZEAMX,"ZEAMX (Corn, Field) [1]; rate 0.0158 kg/ha",4.0
same,Herbicidal rating ZEAMX,"ZEAMX (Corn, Field) [1]; rate 0.0315 kg/ha",4.5
same,Herbicidal rating ZEAMX,"ZEAMX (Corn, Field) [1]; rate 0.0630 kg/ha",4.5
same,Preemergence herbicidal rating ECHCG,ECHCG (Barnyardgrass); rate 0.0156 kg/ha,0.0
same,Preemergence herbicidal rating ECHCG,ECHCG (Barnyardgrass); rate 0.0313 kg/ha,0.0
same,Preemergence herbicidal rating ECHCG,ECHCG (Barnyardgrass); rate 0.0625 kg/ha,0.0
same,Preemergence herbicidal rating ECHCG,ECHCG (Barnyardgrass); rate 0.1250 kg/ha,0.0
same,Preemergence herbicidal rating ECHCG,ECHCG (Barnyardgrass); rate 0.2500 kg/ha,0.0
same,CYPIR herbicidal effect rating,CYPIR (Rice Flatsedge); 0.0313 kg/ha,3.0
same,CYPIR herbicidal effect rating,CYPIR (Rice Flatsedge); 0.0625 kg/ha,5.0
same,CYPIR herbicidal effect rating,CYPIR (Rice Flatsedge); 0.1250 kg/ha,5.0
same,CYPIR herbicidal effect rating,CYPIR (Rice Flatsedge); 0.2500 kg/ha,6.0
same,ECHORC herbicidal effect rating,[2]; 0.0313 kg/ha,4.0
same,ECHORC herbicidal effect rating,[2]; 0.0625 kg/ha,4.0
same,ECHORC herbicidal effect rating,[2]; 0.1250 kg/ha,5.0
same,ECHORC herbicidal effect rating,[2]; 0.2500 kg/ha,7.0
same,Preemergence herbicidal rating SETVI,"SETVI (Foxtail, Green); rate 0.0156 kg/ha",0.0
same,Preemergence herbicidal rating SETVI,"SETVI (Foxtail, Green); rate 0.0313 kg/ha",0.0
same,Preemergence herbicidal rating SETVI,"SETVI (Foxtail, Green); rate 0.0625 kg/ha",0.0
same,Preemergence herbicidal rating SETVI,"SETVI (Foxtail, Green); rate 0.1250 kg/ha",0.0
same,Preemergence herbicidal rating SETVI,"SETVI (Foxtail, Green); rate 0.2500 kg/ha",1.0
same,Preemergence herbicidal rating CASOB,CASOB (Sicklepod) [3]; rate 0.0156 kg/ha,0.0
same,Preemergence herbicidal rating CASOB,CASOB (Sicklepod) [3]; rate 0.0313 kg/ha,0.0
same,Preemergence herbicidal rating CASOB,CASOB (Sicklepod) [3]; rate 0.0625 kg/ha,0.0
same,Preemergence herbicidal rating CASOB,CASOB (Sicklepod) [3]; rate 0.1250 kg/ha,0.0
same,Preemergence herbicidal rating CASOB,CASOB (Sicklepod) [3]; rate 0.2500 kg/ha,0.0
same,Preemergence herbicidal rating TRZAWR,[4]; rate 0.0156 kg/ha,0.0
same,Preemergence herbicidal rating TRZAWR,[4]; rate 0.0313 kg/ha,0.0
same,Preemergence herbicidal rating TRZAWR,[4]; rate 0.0625 kg/ha,0.0
same,Preemergence herbicidal rating TRZAWR,[4]; rate 0.1250 kg/ha,0.0
same,Preemergence herbicidal rating TRZAWR,[4]; rate 0.2500 kg/ha,0.0
same,Preemergence herbicidal rating GLXMAW,[5]; rate 0.0156 kg/ha,0.0
same,Preemergence herbicidal rating GLXMAW,[5]; rate 0.0313 kg/ha,1.0
same,Preemergence herbicidal rating GLXMAW,[5]; rate 0.0625 kg/ha,0.0
same,Preemergence herbicidal rating GLXMAW,[5]; rate 0.1250 kg/ha,0.0
same,Preemergence herbicidal rating GLXMAW,[5]; rate 0.2500 kg/ha,2.0
same,Herbicidal rating CASOB,CASOB (Sicklepod) [6]; rate 0.0158 kg/ha,0.0
same,Herbicidal rating CASOB,CASOB (Sicklepod) [6]; rate 0.0315 kg/ha,0.0
same,Herbicidal rating CASOB,CASOB (Sicklepod) [6]; rate 0.0630 kg/ha,4.0
same,Preemergence herbicidal rating GALAP,GALAP (Galium); rate 0.0156 kg/ha,0.0
same,Preemergence herbicidal rating GALAP,GALAP (Galium); rate 0.0313 kg/ha,0.0
same,Preemergence herbicidal rating GALAP,GALAP (Galium); rate 0.0625 kg/ha,0.0
same,Preemergence herbicidal rating GALAP,GALAP (Galium); rate 0.1250 kg/ha,1.0
same,Preemergence herbicidal rating GALAP,GALAP (Galium); rate 0.2500 kg/ha,3.0
same,CYPSE herbicidal effect rating,CYPSE (Flatsedge); 0.0313 kg/ha,0.0
same,CYPSE herbicidal effect rating,CYPSE (Flatsedge); 0.0625 kg/ha,0.0
same,CYPSE herbicidal effect rating,CYPSE (Flatsedge); 0.1250 kg/ha,0.0
same,CYPSE herbicidal effect rating,CYPSE (Flatsedge); 0.2500 kg/ha,0.0
same,Preemergence herbicidal rating IPOHE,[7]; rate 0.0156 kg/ha,0.0
same,Preemergence herbicidal rating IPOHE,[7]; rate 0.0313 kg/ha,0.0
same,Preemergence herbicidal rating IPOHE,[7]; rate 0.0625 kg/ha,0.0
same,Preemergence herbicidal rating IPOHE,[7]; rate 0.1250 kg/ha,0.0
same,Preemergence herbicidal rating IPOHE,[7]; rate 0.2500 kg/ha,1.0
same,Preemergence herbicidal rating ZEAMX,"ZEAMX (Corn, Field) [8]; rate 0.0156 kg/ha",0.0
same,Preemergence herbicidal rating ZEAMX,"ZEAMX (Corn, Field) [8]; rate 0.0313 kg/ha",1.0
same,Preemergence herbicidal rating ZEAMX,"ZEAMX (Corn, Field) [8]; rate 0.0625 kg/ha",0.0
same,Preemergence herbicidal rating ZEAMX,"ZEAMX (Corn, Field) [8]; rate 0.1250 kg/ha",0.0
same,Preemergence herbicidal rating ZEAMX,"ZEAMX (Corn, Field) [8]; rate 0.2500 kg/ha",1.0
same,Preemergence herbicidal rating ABUTH,ABUTH (Velvetleaf); rate 0.0156 kg/ha,0.0
same,Preemergence herbicidal rating ABUTH,ABUTH (Velvetleaf); rate 0.0313 kg/ha,1.0
same,Preemergence herbicidal rating ABUTH,ABUTH (Velvetleaf); rate 0.0625 kg/ha,1.0
same,Preemergence herbicidal rating ABUTH,ABUTH (Velvetleaf); rate 0.1250 kg/ha,9.0
same,Preemergence herbicidal rating ABUTH,ABUTH (Velvetleaf); rate 0.2500 kg/ha,9.0
same,Herbicidal rating IPOHE,[9]; rate 0.0158 kg/ha,7.0
same,Herbicidal rating IPOHE,[9]; rate 0.0315 kg/ha,9.0
same,Herbicidal rating IPOHE,[9]; rate 0.0630 kg/ha,9.0
